Residues, ends and D or L forms follow the SMILES beside them.
System: Smooth Muscle Cells of Rat Portal Vein
Experiment: Spontaneous contractile activity of rat portal vein smooth muscle specimens
Assay type: cell-based
Conditions: 10^-6 g/ml
Experimental: Rat portal vein SMS samples were surgically isolated from random bred rats weighing 200-250 g. The suitability of each isolated rat portal vein SMS was established by measuring the spontaneous contraction response and its contractile response of the specimen to potassium chloride (KCl) as follows. Each isolated SMS was placed into an organ bath with standard Krebs-Henseleit (KH) solution at 35° C. Then, 0.5 ml of physiological saline were added into the organ bath. In this procedure, one end of the smooth muscle strip was fixed, while the other end of the muscle strip was connected with a probe which transmitted contraction-induced signals to an analog-to-digital converter. The spontaneous contraction curve for each SMS was recorded by taking repeated measurements over a 1-minute period. Next, 0.5 ml of a 600 mM solution of KCl in physiological saline was added to the SMS sample/organ bath to achieve a final concentration of 60 mM KCl. KCl induces contraction of rat portal vein tissue at a fmal tissue concentration of about 60 mM.
The KCl-induced contraction curve for each specimen sample was then recorded over the next 5-minute period. […] During this stabilization period, the spontaneous contraction curve for each SMS was verified by monitoring the data obtained from analog-to-digital converter.
To each SMS in the organ bath prepared according to Steps 2 and 3 above, 0.5 ml of physiological saline was added, and the spontaneous contraction curve was recorded for 1 minute. Each spontaneous contraction curve served as baseline (control) curve for comparison with the respective spontaneous contraction of each SMS in the presence of a test substance or reference substance.
Spontaneous contraction curve values for each SMS were recorded by making repetitive measurements of the spontaneous contractile activity of each sample at 2, 5, 10, and 15 minutes after the addition of the test or reference substance to each SMS/organ bath. Next, 0.5 ml of a solution of 600 mM solution of KCl in […] in the organ bath until a final concentration of 60 mM KCl was achieved. The contractile activity of each SMS was then measured for 5 minutes.

With `NCC(=O)N[C@@H](CCC(=O)O)C(=O)O` [GE, L-Glycyl-L-Glutamic acid] (H-Gly-Glu-OH) the “effect on spontaneous contractions (amplitude and area under curve)” value was “appreciably reduced the amplitude of and area under the contraction curve”, the “Amplitude of spontaneous contraction (% of Control)” value (from here on “Amplitude … (% of Control)”) (2 min after application) was 114.93% and the “Area Under Curve of spontaneous contraction (% of Control)” value (shortened to “Area Under Curve … (% of Control)”) (2 min after application) was 134.77%. For the same compound, the “Amplitude … (% of Control)” value (5 min after application) was 75.56%, the “Area Under Curve … (% of Control)” value (5 min after application) was 87.51% and the “Amplitude … (% of Control)” value (10 min after application) was 60.37%. The “Area Under Curve … (% of Control)” value (10 min after application) was 70.07%, the “Amplitude … (% of Control)” value (15 min after application) was 63.94% and the “Area Under Curve … (% of Control)” value (15 min after application) was 75.08%.
